Measurements as given in ChEMBL document CHEMBL6182887, “Chemical modification of monensin as a source of potent antiplasmodial agents” (Bioorg Med Chem, 2025).

Tests used:
[1] = Cytotoxicity against human Huh-7 cells assessed as reduction in cell viability incubated for 46 hrs by AlamarBlue dye based fluorescence analysis; type: toxicity
[2] = tested on: Plasmodium berghei; test: (§1) Antiplasmodial activity against hepatic stage luciferase-expressing Plasmodium berghei sporozoites infected in human Huh-7 cells assessed as reduction in parasite burden preincubated for 1 hrs followed by infection and measured after 46 hrs by […]; type: functional, organism-based
[3] = Selectivity index, ratio of CC50 for cytotoxicity against human Huh-7 cells to IC50 for antiplasmodial activity against hepatic stage luciferase-expressing Plasmodium berghei sporozoites infected in human Huh-7 cells; type: toxicity, cell-based; conditions: read-out: Ratio CC50/IC50
[4] = tested on: Plasmodium falciparum; test: Antiplasmodial activity against Plasmodium falciparum; type: functional, organism-based
[5] = tested on: Plasmodium berghei; test: as §1, with “Potency index, ratio of monensin IC50 to test compound IC50 for antiplasmodial” for “Antiplasmodial”; type: functional; conditions: time 47 hrs

CC[C@@]1([C@@H]2O[C@@H]([C@H]3O[C@@](O)(CO)[C@H](C)C[C@@H]3C)C[C@@H]2C)CC[C@H]([C@]2(C)CC[C@]3(C[C@H](O)[C@@H](C)[C@@H]([C@@H](C)[C@@H](OC)[C@H](C)C(=O)OCCCC[P+](c4ccccc4)(c4ccccc4)c4ccccc4)O3)O2)O1
CC50 at 46 h [1]: 5.8 µM | IC50 [2]: 0.623 µM | selectivity ratio [3]: 9.3

CC[C@@]1([C@@H]2O[C@@H]([C@H]3O[C@@](O)(COS(=O)(=O)c4ccc(C)cc4)[C@H](C)C[C@@H]3C)C[C@@H]2C)CC[C@H]([C@]2(C)CC[C@]3(C[C@H](O)[C@@H](C)[C@@H]([C@@H](C)[C@@H](OC)[C@H](C)C(=O)O)O3)O2)O1
IC50 [4]: 0.00152 µM

CC[C@@]1([C@@H]2O[C@@H]([C@H]3O[C@@](O)(COC(=O)Nc4ccccc4)[C@H](C)C[C@@H]3C)C[C@@H]2C)CC[C@H]([C@]2(C)CC[C@]3(C[C@H](O)[C@@H](C)[C@@H]([C@@H](C)[C@@H](OC)[C@H](C)C(=O)O)O3)O2)O1
Ratio IC50 [5]: ~8 | CC50 at 46 h [1]: 3.1 µM | IC50 [2]: 0.0007 µM | selectivity ratio [3]: 4430

CC[C@@]1([C@@H]2O[C@@H]([C@H]3O[C@@](O)(CNC(=O)c4ccccc4)[C@H](C)C[C@@H]3C)C[C@@H]2C)CC[C@H]([C@]2(C)CC[C@]3(C[C@H](O)[C@@H](C)[C@@H]([C@@H](C)[C@@H](OC)[C@H](C)C(=O)O)O3)O2)O1
CC50 at 46 h [1]: 8.4 µM | IC50 [2]: 0.0064 µM | selectivity ratio [3]: 1310

CC[C@@]1([C@@H]2O[C@@H]([C@H]3O[C@@](O)(CNC(=O)Nc4ccccc4)[C@H](C)C[C@@H]3C)C[C@@H]2C)CC[C@H]([C@]2(C)CC[C@]3(C[C@H](O)[C@@H](C)[C@@H]([C@@H](C)[C@@H](OC)[C@H](C)C(=O)O)O3)O2)O1
CC50 at 46 h [1]: 4.2 µM | IC50 [2]: 0.0029 µM | selectivity ratio [3]: 1450

CC[C@@]1([C@@H]2O[C@@H]([C@H]3O[C@@](O)(CNC(=O)CCC[P+](c4ccccc4)(c4ccccc4)c4ccccc4)[C@H](C)C[C@@H]3C)C[C@@H]2C)CC[C@H]([C@]2(C)CC[C@]3(C[C@H](O)[C@@H](C)[C@@H]([C@@H](C)[C@@H](OC)[C@H](C)C(=O)O)O3)O2)O1
CC50 at 46 h [1]: 75.3 µM | IC50 [2]: 1.49 µM | selectivity ratio [3]: 50.6

CC[C@@]1([C@@H]2O[C@@H]([C@H]3O[C@@](O)(CO)[C@H](C)C[C@@H]3C)C[C@@H]2C)CC[C@H]([C@]2(C)CC[C@]3(C[C@H](O)[C@@H](C)[C@@H]([C@@H](C)[C@@H](OC)[C@H](C)C(=O)OCc4ccccc4)O3)O2)O1
CC50 at 46 h [1]: 31.3 µM | IC50 [2]: 0.0816 µM | selectivity ratio [3]: 384

CC[C@@]1([C@@H]2O[C@@H]([C@H]3O[C@@]4(COC(=O)O4)[C@H](C)C[C@@H]3C)C[C@@H]2C)CC[C@H]([C@]2(C)CC[C@]3(C[C@H](O)[C@@H](C)[C@@H]([C@@H](C)[C@@H](OC)[C@H](C)C(=O)O)O3)O2)O1
IC50 [4]: 0.00108 µM

CC[C@@]1([C@@H]2O[C@@H]([C@H]3O[C@@](O)(CO)[C@H](C)C[C@@H]3C)C[C@@H]2C)CC[C@H]([C@]2(C)CC[C@]3(C[C@H](O)[C@@H](C)[C@@H]([C@@H](C)[C@@H](OC)[C@H](C)C(=O)O)O3)O2)O1 [MONENSIN]
CC50 at 46 h [1]: 17.5 µM | IC50 [2]: 0.0055 µM | selectivity ratio [3]: 3180 | IC50 [4]: 0.00246 µM

COc1cc(NC(C)CCCN)c2ncccc2c1 (configuration not stated) [PRIMAQUINE]
CC50 at 46 h [1]: 139 µM | selectivity ratio [3]: 16.4
